{"source": "patent US20060217445A1", "about": "“Natural astaxanthin extract reduces dna oxidation” (priority 2003, published 2006)", "key": {"[1]": {"tested_on": "splenocytes of tumor-bearing mice", "settings": "dietary; cited from earlier work"}, "lipid peroxidation": {"tested_on": "lipid peroxidation", "settings": "cited from earlier work"}, "[2]": {"experiment": "Plasma astaxanthin by reverse phase HPLC in supplemented human subjects", "assay_type": "in vivo", "set-up": "Astaxanthin Levels (plasma): unit not given here", "settings": "for Astaxanthin Levels (plasma): oral", "experimental": "(§1) Free-living healthy female Korean subjects (average age 21.5 years) were recruited at Inha University, Korea. A three-day dietary record was obtained prior to the study to provide background dietary information. Subjects had no history of diabetes, cancer or alcohol abuse, and were non-smokers. They were allowed to consume their normal diets but advised to restrain from eating astaxanthin-rich foods. Subjects were assigned to receive 0 (control), 2, or 8 mg astaxanthin (109 g astaxanthin/kg oleoresin concentrate from Haematococcus pluvialis, astaZanthin™, La Haye Laboratories Inc., Redmond, Wash.) (n=14 subjects/diet) for eight weeks in a double-blind placebo control study. The astaxanthin was administered in the form of one soft gel capsule taken every morning. Blood was again drawn on week 0, 4 and 8 to assess immune function and oxidative status.\nHPLC. Astaxanthin content in plasma was analyzed by reverse phase HPLC (Alliance 2690 Waters HPLC system fitted with a photodiode array detector, Waters, Milford, Mass.) as previously described (Park et al., J Nutr. 128(10):1650-1656, 1998). Trans-β-apo-8′carotenal (Sigma Chem. Co., St. Louis, Mo.) was used as the internal standard."}, "human subjects": {"tested_on": "human subjects", "experiment": "Delayed-type hypersensitivity (DTH) response to intracutaneous tuberculin", "assay_type": "in vivo", "experimental": "as §1\nDelayed-type hypersensitivity. Delayed-type hypersensitivity (DTH) response to an intracutaneous injection of tuberculin (Mono-Vacc Test (O.T.), Pasteur Merieux Connaught, France) was assessed on week 8. The injection was administered by a physician and skin thickness and induration were measured at 0, 24, 48 and 72 hours after challenge. In general, DTH response was maximal at 48 to 72 h post-injection (FIG. 9). Subjects fed 2 mg astaxanthin had higher (P<0.08) DTH response than unsupplemented controls."}, "[3]": {"settings": "cited from earlier work"}, "[4]": {"tested_on": "cytotoxic T lymphocyte activity and IFN-γ production", "settings": "astaxanthin-fed mice; cited from earlier work"}, "splenocytes": {"tested_on": "splenocytes", "settings": "mice; cited from earlier work"}, "rats": {"tested_on": "rats", "settings": "rats fed 400 ppm for 41 days; cited from earlier work"}, "[5]": {"tested_on": "peripheral blood mononuclear cell (PBMC)", "experiment": "Mitogen-induced lymphoproliferation, whole blood cultures", "assay_type": "in vivo, human", "settings": "especially 8 mg; significant (P<0.05) on wk 8", "experimental": "as §1\nLymphoproliferation. The proliferation response of peripheral blood mononuclear cell (PBMC) to PHA (2 and 10 mg/L final concentration), concanavalin A (Con A; 2 and 10 mg/L), and pokeweed mitogen (PWM; 1 and 5 mg/L) was assessed using whole blood cultures as described (Chew et al., J Nutr. 130(8):1910-1913, 2000). Whole blood was cultured in order to mimic in vivo conditions. Results were calculated as stimulation index (cpm of mitogen-stimulated culture/cpm of unstimulated cultures). Astaxanthin supplementation, especially those given 8 mg astaxanthin, increased lymphocyte proliferation when stimulated by the T cell-dependent mitogens PHA (FIG. 2) and Con A (FIG. 3), and also B cell mitogen (PWM, FIG. 4). The increases were significant (P<0.05) on wk 8 for all mitogens."}, "[6]": {"tested_on": "ICAM-1 (CD54), LFA-1 (CD11a) and LFA-3 (CD58)", "experiment": "Cell surface adhesion molecules by flow cytometry", "assay_type": "in vivo, human", "settings": "for frequency of cells expressing LFA-1 marker: week 8 (control 31.8%)", "experimental": "as §1\n(§2) Leukocyte subset. Subpopulations of CD3 (total T), CD4 (Th), CD8 (Tc), NK (natural killer), and CD21 (B cells) were quantitated by flow cytometry as previously described (Chew et al. 2000). In addition, the distribution of the cell surface adhesion molecules ICAM-1 (CD54), LFA-1 (CD11a) and LFA-3 (CD58), also was measured by flow cytometry. The population of total T cells was higher (P<0.05) in astaxanthin-fed (both levels) subjects than unsupplemented controls on wk 4 and 8 (FIG. 6). The population of B cells also was higher (P<0.05) in subjects given 2 mg astaxanthin after 8 weeks (FIG. 7)."}, "[7]": {"settings": "mice fed the same amount of these carotenoids; cited from earlier work"}, "[8]": {"tested_on": "UVA-induced oxidative stress", "settings": "in vitro; cited from earlier work"}, "[9]": {"tested_on": "8-epi-prostaglandin F2α (8-isoprostane)", "experiment": "Lipid peroxidation: plasma 8-isoprostane by ELISA", "assay_type": "in vivo, human", "settings": "2 or 8 mg daily, 8 weeks", "experimental": "as §1\nLipid-peroxidation. Plasma concentrations of 8-epi-prostaglandin F2α (8-isoprostane) was measured by ELISA."}, "[10]": {"tested_on": "8-Hydroxy-2′-deoxyguanosine (8-OHdG)", "experiment": "Oxidative damage to DNA: plasma 8-OHdG by ELISA", "assay_type": "in vivo, human", "set-up": "Average Levels of 8-OHdG (plasma): unit not given here", "settings": "for Average Levels of 8-OHdG (plasma): oral", "experimental": "as §1\nOxidative damage to DNA. 8-Hydroxy-2′-deoxyguanosine (8-OHdG) was measured in plasma by ELISA (BIOXYTECH™ 8-OHhdG-EIA Kit, OxisResearch, Portland, Oreg.; sensitivity=0.5 μg/L)."}, "K562 target cells": {"tested_on": "K562 target cells", "experiment": "Natural killer cell cytotoxic activity (PBMC effector, MTT)", "assay_type": "in vivo, human", "settings": "8 mg daily, wk 8, effector:target ratio 10:1, P<0.05", "experimental": "as §1\nNatural killer cell cytotoxic activity. Effector (PBMC) and target (K562) cells were cultured at effector:target ratios of 5:1 and 10:1 in Dulbecco's Modified Eagles Medium (Sigma, St. Louis, Mo.) containing 100 mL/L fetal bovine serum, 100 U/mL penicillin, and […] streptomycin sulfate. Killing was assessed using MTT. Percent of specific cytotoxicity calculated as follows: % Specific cytotoxicity=1−(ODeffector+target−ODeffector)/ODtarget×100. […]"}, "[11]": {"tested_on": "CD3 (total T), CD4 (Th), CD8 (Tc), NK, CD21 (B cells)", "experiment": "Leukocyte subsets by flow cytometry", "assay_type": "in vivo, human", "experimental": "as §1, §2"}}, "note": "“Also recorded” adds a separate entry of the source."}
{"smiles": "CC1=C[C@H](O)CC(C)(C)[C@H]1/C=C/C(C)=C/C=C/C(C)=C/C=C/C=C(C)/C=C/C=C(C)/C=C/C1=C(C)C[C@@H](O)CC1(C)C", "note": "[lutein]", "values": [{"measurement": "IFN-γ mRNA expression", "setting": "[1]", "result": "increased"}, {"measurement": "expression of IL-10", "setting": "[1]", "result": "decreased"}]}
{"smiles": "CC1=C(/C=C/C(C)=C/C=C/C(C)=C/C=C/C=C(C)/C=C/C=C(C)/C=C/C2=C(C)C(=O)C(O)CC2(C)C)C(C)(C)CC(O)C1=O", "note": "(stereo not drawn) [astaxanthin, 3,3′-dihydroxy-beta,beta-carotene-4,4′-dione]", "values": [{"measurement": "inhibiting lipid peroxidation vs β-carotene and vitamin E", "setting": "lipid peroxidation", "result": "more effective"}, {"measurement": "Astaxanthin Levels (plasma)", "setting": "[2]; 2 mg astaxanthin daily, 4 week", "result": 0.0960}, {"measurement": "Astaxanthin Levels (plasma)", "setting": "[2]; 2 mg astaxanthin daily, 8 week", "result": 0.0921}, {"measurement": "Astaxanthin Levels (plasma)", "setting": "[2]; 8 mg astaxanthin daily, 4 week", "result": 0.1309}, {"measurement": "Astaxanthin Levels (plasma)", "setting": "[2]; 8 mg astaxanthin daily, 8 week", "result": 0.1162}, {"measurement": "plasma astaxanthin prior to feeding", "setting": "[2]; week 0", "result": "undetectable"}, {"measurement": "plasma astaxanthin, change on feeding", "setting": "[2]; weeks 4 and 8, dose-dependently, P<0.01", "result": "increased"}, {"measurement": "DTH response vs unsupplemented controls", "setting": "human subjects; 2 mg daily, week 8, P<0.08", "result": "higher"}, {"measurement": "DTH response vs unsupplemented controls", "setting": "human subjects; 8 mg daily, week 8", "result": "did not show a similar heightened DTH response"}, {"measurement": "solubility in oil", "setting": "[3]; oil", "result": "extremely low"}, {"measurement": "solubility in water", "setting": "[3]; water", "result": "substantially insoluble"}, {"measurement": "cytotoxic T lymphocyte activity and IFN-γ production", "setting": "[4]", "result": "increased"}, {"measurement": "ex vivo antibody response of splenocytes to T-cell antigens", "setting": "splenocytes", "result": "increased"}, {"measurement": "effects on body/organ weight, enzyme activities, pregnancy, or litter size", "setting": "rats", "result": "no harmful effects"}, {"measurement": "Con A-induced lymphocyte proliferation (stimulation index)", "setting": "[5]", "result": "increased; also recorded: stimulated"}, {"measurement": "PHA-induced lymphocyte proliferation (stimulation index)", "setting": "[5]", "result": "increased; also recorded: stimulated"}, {"measurement": "PWM-induced lymphocyte proliferation (stimulation index)", "setting": "[5]", "result": "increased; also recorded: stimulated"}, {"measurement": "expression of LFA-1 adhesion molecules", "setting": "[6]; 2 mg daily, P<0.05", "result": "increased"}, {"measurement": "frequency of cells expressing LFA-1 marker", "setting": "[6]; 2 mg daily", "result": 42.1, "unit": "%"}, {"measurement": "frequency of cells expressing LFA-1 marker", "setting": "[6]; 8 mg daily", "result": 30.6, "unit": "%"}, {"measurement": "ICAM-1 or LFA-3 expression", "setting": "[6]; 2 or 8 mg daily", "result": "No similar dietary effect"}, {"measurement": "concentration in plasma vs β-carotene, lutein", "setting": "[7]", "result": "much higher"}, {"measurement": "protection against UVA-induced oxidative stress relative to lutein and β-carotene", "setting": "[8]", "result": "approximately 100 fold"}, {"measurement": "lipid peroxidation measured in the plasma (8-isoprostane)", "setting": "[9]", "result": "did not significantly influence"}, {"measurement": "Average Levels of 8-OHdG (plasma)", "setting": "[10]; 2 mg astaxanthin daily, 0 week (baseline)", "result": 23.4}, {"measurement": "Average Levels of 8-OHdG (plasma)", "setting": "[10]; 2 mg astaxanthin daily, 4 week", "result": 13.8}, {"measurement": "Average Levels of 8-OHdG (plasma)", "setting": "[10]; 2 mg astaxanthin daily, 8 week", "result": 14.4}, {"measurement": "Average Levels of 8-OHdG (plasma)", "setting": "[10]; 8 mg astaxanthin daily, 0 week (baseline)", "result": 23.5}, {"measurement": "Average Levels of 8-OHdG (plasma)", "setting": "[10]; 8 mg astaxanthin daily, 4 week", "result": 15.3}, {"measurement": "Average Levels of 8-OHdG (plasma)", "setting": "[10]; 8 mg astaxanthin daily, 8 week", "result": 13.2}, {"measurement": "further decrease of DNA damage with higher dose", "setting": "[10]; 8 mg vs 2 mg daily", "result": "did not decrease further"}, {"measurement": "plasma 8-oxodG concentration vs unsupplemented subjects", "setting": "[10]; 2 or 8 mg daily, as early as wk 4, P<0.01", "result": "dramatically lower"}, {"measurement": "reduction in 8-OHdG (blood DNA damage)", "setting": "[10]; after 4 weeks of feeding", "result": "> 35", "unit": "%"}, {"measurement": "NK cell cytotoxic activity", "setting": "K562 target cells", "result": "higher; also recorded: increased"}, {"measurement": "population of B cells", "setting": "[11]; 2 mg daily, after 8 weeks, P<0.05", "result": "higher"}, {"measurement": "population of B cells", "setting": "[11]; 8 mg daily", "result": "did not elevate"}, {"measurement": "population of Th, Tc or NK cells or ratio of Th:Tc cells", "setting": "[11]; 2 or 8 mg daily", "result": "did not significantly influence"}, {"measurement": "population of total T cells vs unsupplemented controls", "setting": "[11]; both levels (2 and 8 mg), wk 4 and 8, P<0.05", "result": "higher; also recorded: increased"}]}
